Laboratory results as given in US12504423B2, “Human in vitro cardiotoxicity model” (Brown University, priority 2020, dated 2025).
Read-outs that look alike come from different tables or passages of the source. Values belong to the molecule of their own block, whether it stands above or below them.

Tests used:
[1] = tested on: hiPSC-CM microtissues; test: Cardiac TEEM: optical mapping of action potentials in 3D human cardiac microtissues
Description: Optical mapping and automated action potential duration analysis. The inventors used an Olympus MVX10 microscope to image 1.2×1.2-mm^2 regions. Microtissues were loaded with voltage-sensitive di-4-ANEPPS (5 μM for ten minutes at 35° C.) for measurements of membrane potential (Vm). […] Fluorescence images were filtered using nonlinear bilateral filter (spatial filter: 5×5 window, temporal filter: 21-point window) to preserve action potential upstrokes from blurring. Typically, four microtissues were recorded simultaneously/scan at this magnification. A single microtissue is typically covered by ˜60 pixels at this magnification. The pixels with action potentials were identified from Fast Fourier transformation (FFT) of fluorescence signals. After appropriate thresholding and image segmentation, the region of each microtissue was grouped and the fluorescence signals from the pixels in the same microtissue were average and used for action potential analysis.
Optical mapping and automated action potential analysis (alternative). Microtissues were loaded with voltage-sensitive di-4-ANEPPS (5 μM for 10 min at 35° C.) for measurements of membrane potential (Vm). […] Typically, four microtissues were recorded simultaneously per scan at this magnification. A step-by-step illustration of automated data analysis is available in FIGS. 4A-G. Briefly, the pixels with APs were identified from Fast Fourier transformation (FFT) of fluorescence signals. After appropriate thresholding and image segmentation, the region of each microtissue was grouped and the fluorescence signals from the pixels in the same microtissue were average and used for action potential analysis.
Validation and screening of toxicants for arrhythmogenic risk. […] Concentrations are selected to span human exposure levels or blood serum levels and quantify dose-dependent changes over a wide range (with a goal of more than 10,000× change in concentration and at least 4-6 doses). A single mold of microtissues is imaged for approximately 1 hour to assure quality recordings without signal degradation due to tissue degeneration, enabling measurement under control conditions (zero compound) and 3 doses.
Validation and screening of toxicants for arrhythmogenic risk (alternative). […] Microtissues were stimulated with a platinum field stimulation electrode. Myopacer EP field stimulator, IonOptix, Milton, MA, USA). […] BPA was dissolved in 10% ethanol stock solution and diluted in Tyrode solution to the final concentration. Microtissues were exposed to vehicle (DMSO or ethanol) and the indicated concentrations of test compounds for 20 min, and action potentials were measured as described above.
The Cardiac Tissue-Engineered Model (TEEM) uses human cardiomyocytes derived from human pluripotent stem cells, which express all the human proteins, ion channels and currents necessary for assessing a human-specific arrhythmic and cardiotoxic response, including the seven critical ion channels identified by the FDA's CiPA initiative. […] The intensity of the signal gives a reading of voltage (in the millivolt range) overtime, which is the action potential trace. A similar dye that fluoresces in response to the intracellular calcium (Ca^2+) concentration gives a calcium transient (CaT) for each activation of each cardiac microtissue. See above.

[2] = tested on: rats; details: rodents; greater sensitivity in female rats than male rats; cited from earlier work
[3] = biological target: sodium channel Nav1.5 (Homo sapiens, UniProt Q14524); details: read-out: IC50, block of sodium channel Nav1.5; cited from earlier work
[4] = tested on: hiPSC-CM microtissues; test: Calcium transient (CaT) recording of spontaneous activity in hiPSC-CM microtissues; assay type: cell-based, human; details: 100 nM
Description: FIGS. 1A-C are a set of graphs showing the stimulation protocol and CaT metrics. […] CaTs were recorded using Rhod-2/AM. […] Activation Interval (AI), the time between two CaTs, will be measured before and after drug perfusion to detect altered spontaneous activity. CaTs recorded with the genetically encoded optogenetic probe GCaMP.
The inventors also developed a platform suitable for cardiotoxicity testing that can detect alteration in Cai release and removal processes from hiPSC-CM microtissues by measuring detailed kinetic parameters of Cai dynamics during a proposed stimulation protocol as shown in FIGS. 1A-C.

[5] = 1000 mg b.i.d.; blood serum; cited from earlier work
[6] = biological target: INCX (Homo sapiens, UniProt P32418); details: cited from earlier work
[7] = tested on: late sodium current (INa,late); details: read-out: IC50, late sodium current (INa,late) block; cited from earlier work
[8] = biological target: late ICa (Homo sapiens, UniProt Q13936); details: cited from earlier work
Sequence of late ICa (Q13936 whole entry): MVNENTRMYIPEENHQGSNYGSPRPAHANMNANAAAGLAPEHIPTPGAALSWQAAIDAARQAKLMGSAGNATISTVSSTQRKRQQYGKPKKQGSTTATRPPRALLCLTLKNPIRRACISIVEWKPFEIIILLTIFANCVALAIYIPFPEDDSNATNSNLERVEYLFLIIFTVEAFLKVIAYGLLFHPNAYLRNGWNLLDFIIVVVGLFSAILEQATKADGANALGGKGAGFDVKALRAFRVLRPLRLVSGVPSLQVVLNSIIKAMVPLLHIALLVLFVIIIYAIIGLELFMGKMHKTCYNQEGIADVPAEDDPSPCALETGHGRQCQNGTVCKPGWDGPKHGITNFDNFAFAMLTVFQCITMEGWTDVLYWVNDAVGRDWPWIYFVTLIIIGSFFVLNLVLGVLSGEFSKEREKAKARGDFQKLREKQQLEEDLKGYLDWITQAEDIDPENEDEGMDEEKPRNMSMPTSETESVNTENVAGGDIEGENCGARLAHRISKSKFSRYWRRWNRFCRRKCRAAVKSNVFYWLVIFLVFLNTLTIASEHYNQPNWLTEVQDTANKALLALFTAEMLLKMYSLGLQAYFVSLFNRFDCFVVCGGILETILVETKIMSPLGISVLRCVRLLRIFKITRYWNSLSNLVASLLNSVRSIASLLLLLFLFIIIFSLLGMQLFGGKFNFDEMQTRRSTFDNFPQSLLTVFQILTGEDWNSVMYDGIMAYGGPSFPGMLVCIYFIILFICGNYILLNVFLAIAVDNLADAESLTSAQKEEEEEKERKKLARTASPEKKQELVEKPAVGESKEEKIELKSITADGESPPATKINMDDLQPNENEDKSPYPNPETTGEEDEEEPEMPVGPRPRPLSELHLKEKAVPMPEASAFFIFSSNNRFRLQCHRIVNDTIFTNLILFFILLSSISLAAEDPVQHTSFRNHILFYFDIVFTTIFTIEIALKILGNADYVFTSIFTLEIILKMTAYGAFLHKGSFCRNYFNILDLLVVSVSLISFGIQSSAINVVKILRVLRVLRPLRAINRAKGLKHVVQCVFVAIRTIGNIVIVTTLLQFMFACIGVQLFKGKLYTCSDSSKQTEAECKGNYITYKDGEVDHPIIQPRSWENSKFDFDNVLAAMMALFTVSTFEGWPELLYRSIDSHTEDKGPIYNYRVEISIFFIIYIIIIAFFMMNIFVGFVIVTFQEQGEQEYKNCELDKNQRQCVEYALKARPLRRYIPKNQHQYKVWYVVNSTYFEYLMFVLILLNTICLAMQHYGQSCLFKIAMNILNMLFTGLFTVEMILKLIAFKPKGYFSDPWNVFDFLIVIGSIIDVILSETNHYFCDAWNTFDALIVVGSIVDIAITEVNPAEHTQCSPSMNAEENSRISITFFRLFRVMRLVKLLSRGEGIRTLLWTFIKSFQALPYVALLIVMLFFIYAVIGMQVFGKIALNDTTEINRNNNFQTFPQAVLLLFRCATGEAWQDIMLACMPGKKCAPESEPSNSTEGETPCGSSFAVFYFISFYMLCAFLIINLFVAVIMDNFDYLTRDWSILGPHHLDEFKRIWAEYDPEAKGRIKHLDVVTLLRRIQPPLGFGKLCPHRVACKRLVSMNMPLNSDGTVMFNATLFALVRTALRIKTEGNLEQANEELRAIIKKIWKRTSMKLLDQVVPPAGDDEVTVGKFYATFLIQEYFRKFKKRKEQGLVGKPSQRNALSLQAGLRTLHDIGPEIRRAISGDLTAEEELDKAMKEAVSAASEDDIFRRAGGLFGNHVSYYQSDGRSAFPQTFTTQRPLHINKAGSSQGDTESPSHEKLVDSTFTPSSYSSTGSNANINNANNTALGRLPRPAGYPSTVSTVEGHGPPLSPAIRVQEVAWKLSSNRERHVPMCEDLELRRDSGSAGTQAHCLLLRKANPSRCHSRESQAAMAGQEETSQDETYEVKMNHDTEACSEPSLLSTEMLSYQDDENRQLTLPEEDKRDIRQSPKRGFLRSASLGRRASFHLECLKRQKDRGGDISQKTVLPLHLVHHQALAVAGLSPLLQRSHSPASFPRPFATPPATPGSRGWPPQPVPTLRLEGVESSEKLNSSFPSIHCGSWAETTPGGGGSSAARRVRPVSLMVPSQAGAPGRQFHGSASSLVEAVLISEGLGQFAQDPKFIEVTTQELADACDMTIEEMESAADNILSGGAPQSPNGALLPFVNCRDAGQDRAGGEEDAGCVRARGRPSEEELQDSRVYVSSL
Sequence of late ICa (Q08289 whole entry partner): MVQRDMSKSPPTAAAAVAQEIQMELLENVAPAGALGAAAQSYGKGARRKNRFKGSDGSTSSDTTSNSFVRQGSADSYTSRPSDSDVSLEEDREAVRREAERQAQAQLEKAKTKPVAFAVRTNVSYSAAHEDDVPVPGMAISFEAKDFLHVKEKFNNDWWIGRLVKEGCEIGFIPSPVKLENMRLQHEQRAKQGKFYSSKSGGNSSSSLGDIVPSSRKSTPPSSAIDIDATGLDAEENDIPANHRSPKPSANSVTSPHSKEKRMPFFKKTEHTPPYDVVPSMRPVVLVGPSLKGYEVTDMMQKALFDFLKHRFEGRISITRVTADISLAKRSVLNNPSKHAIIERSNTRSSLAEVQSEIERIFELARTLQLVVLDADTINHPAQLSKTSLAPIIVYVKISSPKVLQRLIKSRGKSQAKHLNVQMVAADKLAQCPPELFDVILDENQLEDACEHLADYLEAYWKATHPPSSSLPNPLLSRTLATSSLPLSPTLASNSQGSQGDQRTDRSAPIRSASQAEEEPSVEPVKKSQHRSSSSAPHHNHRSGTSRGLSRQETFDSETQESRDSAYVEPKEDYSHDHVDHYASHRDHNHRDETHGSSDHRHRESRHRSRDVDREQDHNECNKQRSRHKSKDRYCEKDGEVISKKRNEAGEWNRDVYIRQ
Sequence of late ICa (P54289 25-956 partner limits assumed): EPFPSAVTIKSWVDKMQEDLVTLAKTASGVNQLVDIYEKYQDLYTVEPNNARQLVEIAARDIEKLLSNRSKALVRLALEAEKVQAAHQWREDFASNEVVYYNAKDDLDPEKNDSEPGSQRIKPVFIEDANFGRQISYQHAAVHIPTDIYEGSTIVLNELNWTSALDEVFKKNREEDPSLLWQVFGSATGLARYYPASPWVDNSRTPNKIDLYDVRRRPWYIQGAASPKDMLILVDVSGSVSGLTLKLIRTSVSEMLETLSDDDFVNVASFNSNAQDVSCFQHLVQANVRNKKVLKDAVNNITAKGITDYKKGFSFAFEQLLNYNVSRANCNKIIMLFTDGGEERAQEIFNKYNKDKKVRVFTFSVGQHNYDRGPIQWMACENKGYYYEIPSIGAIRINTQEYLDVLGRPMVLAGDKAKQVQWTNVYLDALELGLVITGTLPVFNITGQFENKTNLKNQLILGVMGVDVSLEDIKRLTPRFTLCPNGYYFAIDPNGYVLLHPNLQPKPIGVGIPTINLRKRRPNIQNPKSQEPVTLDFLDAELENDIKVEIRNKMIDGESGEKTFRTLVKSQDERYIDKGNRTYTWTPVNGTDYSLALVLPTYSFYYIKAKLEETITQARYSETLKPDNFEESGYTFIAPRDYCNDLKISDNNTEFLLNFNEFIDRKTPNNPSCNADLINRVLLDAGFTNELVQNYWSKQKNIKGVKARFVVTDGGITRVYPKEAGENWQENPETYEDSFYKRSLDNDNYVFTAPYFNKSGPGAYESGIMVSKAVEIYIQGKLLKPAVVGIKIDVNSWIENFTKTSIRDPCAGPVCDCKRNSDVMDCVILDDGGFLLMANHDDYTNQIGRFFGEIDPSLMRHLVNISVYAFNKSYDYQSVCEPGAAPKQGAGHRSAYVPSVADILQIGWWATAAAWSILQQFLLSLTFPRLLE
Sequence of late ICa (P54289 957-1103 partner limits assumed): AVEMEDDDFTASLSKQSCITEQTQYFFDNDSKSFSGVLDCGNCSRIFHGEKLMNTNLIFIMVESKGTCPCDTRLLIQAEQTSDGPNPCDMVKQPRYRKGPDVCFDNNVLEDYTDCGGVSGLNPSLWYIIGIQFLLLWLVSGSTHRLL

[9] = biological target: peak ICa (Homo sapiens, UniProt Q13936); details: cited from earlier work
Sequence of peak ICa (Q13936 whole entry): as the sequence (Q13936 whole entry) above
Sequence of peak ICa (Q08289 whole entry partner): as the sequence (Q08289 whole entry partner) above
Sequence of peak ICa (P54289 25-956 partner limits assumed): as the sequence (P54289 25-956 partner limits assumed) above
Sequence of peak ICa (P54289 957-1103 partner limits assumed): as the sequence (P54289 957-1103 partner limits assumed) above

[10] = Ranolazine steady-state Cmax in blood serum (FDA documentation); assay type: in vivo; details: human, 1000 mg, 1000 mg b.i.d., bracketed conversion

SMILES: Nc1ccncc1 [4-AP]
- effect on APDtri [1]: no effect on APDtri
- APD ([1]; 0.5 mM): APD prolongation
- slope of APDtri versus APDMxR ([1]; 0.5 mM, p=0.199): did not steepen

SMILES: CC(C)(c1ccc(O)cc1)c1ccc(O)cc1 [BPA, bisphenol-A]
- action potential duration measurements [1]: shifts action potential duration measurements
- action potential rise time [1]: slowed action potential rise time
- stimulation delay [1]: increased stimulation delay
- APD30 and APD50 relative to APD80 ([1]; female, human, 20 min): APD30 and APD50 were shortened more than APD80
- Dose-dependent mean difference of APD30 ([1]; human, 20 min, 1 nM): 34.5043
- Dose-dependent mean difference of APD60 ([1]; human, 20 min, 1 nM): 37.3566
- Dose-dependent mean difference of APD80 ([1]; human, 20 min, 1 nM): 42.7763
- Dose-dependent mean difference of APDM×R ([1]; human, 20 min, 1 nM): 34.0012
- Dose-dependent mean difference of APDtri ([1]; human, 20 min, 1 nM): −3.327
- Dose-dependent mean difference of Rise Time ([1]; human, 20 min, 1 nM): 1.176
- Dose-dependent mean difference of APD30 ([1]; human, 20 min, 10 nM): −15.3826
- Dose-dependent mean difference of APD60 ([1]; human, 20 min, 10 nM): −14.0569
- Dose-dependent mean difference of APD80 ([1]; human, 20 min, 10 nM): 11.1129
- Dose-dependent mean difference of APDM×R ([1]; human, 20 min, 10 nM): −14.786
- Dose-dependent mean difference of APDtri ([1]; human, 20 min, 10 nM): −0.672
- Dose-dependent mean difference of Rise Time ([1]; human, 20 min, 10 nM): −0.3497
- Dose-dependent mean difference of APD30 ([1]; human, 20 min, 100 nM): −17.808
- Dose-dependent mean difference of APD60 ([1]; human, 20 min, 100 nM): −16.8623
- Dose-dependent mean difference of APD80 ([1]; human, 20 min, 100 nM): 10.0440
- Dose-dependent mean difference of APDM×R ([1]; human, 20 min, 100 nM): −23.7763
- Dose-dependent mean difference of APDtri ([1]; human, 20 min, 100 nM): −6.828
- Dose-dependent mean difference of Rise Time ([1]; human, 20 min, 100 nM): −1.734
- Dose-dependent mean difference of APD30 ([1]; human, 20 min, 1000 nM): −28.3006
- Dose-dependent mean difference of APD60 ([1]; human, 20 min, 1000 nM): −31.0489
- Dose-dependent mean difference of APD80 ([1]; human, 20 min, 1000 nM): −4.641
- Dose-dependent mean difference of APDM×R ([1]; human, 20 min, 1000 nM): −40.7783
- Dose-dependent mean difference of APDtri ([1]; human, 20 min, 1000 nM): −9.615
- Dose-dependent mean difference of Rise Time ([1]; human, 20 min, 1000 nM): −2.203
- concentration promoting arrhythmias [2]: 0.001 µM
- IC50 [3]: 25 µM

- effect on APDtri [1]: no effect on APDtri
SMILES: COC(=O)C1=C(C)NC(C)=C([N+](=O)[O-])C1c1ccccc1C(F)(F)F (stereo not shown) [BayK8644]

- average reduction of APD80 ([1]; human, 20 min, 100 nM): 45 milliseconds
SMILES: CC(C)NCC(O)c1ccc(O)c(O)c1 (stereo not shown) [Isoproterenol, isoproterenol]
- spontaneous activity (CaTs, GCaMP) [4]: spontaneous activity increased

- Dose-dependent mean difference of APD30 ([1]; human, 20 min, 2 μM): 4.692
- Dose-dependent mean difference of APD60 ([1]; human, 20 min, 2 μM): −2.806
- Dose-dependent mean difference of APD80 ([1]; human, 20 min, 2 μM): 4.629
- Dose-dependent mean difference of APDM×R ([1]; human, 20 min, 2 μM): −9.87
- Dose-dependent mean difference of APDtri ([1]; human, 20 min, 2 μM): −7.031
- Dose-dependent mean difference of Rise Time ([1]; human, 20 min, 2 μM): 0.1436
- Dose-dependent mean difference of APD30 ([1]; human, 20 min, 10 μM): 20.71
- Dose-dependent mean difference of APD60 ([1]; human, 20 min, 10 μM): 20.5335
- Dose-dependent mean difference of APD80 ([1]; human, 20 min, 10 μM): 79.1112
- Dose-dependent mean difference of APDM×R ([1]; human, 20 min, 10 μM): 13.1316
- Dose-dependent mean difference of APDtri ([1]; human, 20 min, 10 μM): −7.337
- Dose-dependent mean difference of Rise Time ([1]; human, 20 min, 10 μM): 1.025
- Dose-dependent mean difference of APD30 ([1]; human, 20 min, 100 μM): 57.9565
- Dose-dependent mean difference of APD60 ([1]; human, 20 min, 100 μM): 108.574
- Dose-dependent mean difference of APD80 ([1]; human, 20 min, 100 μM): 242.133
- Dose-dependent mean difference of APDM×R ([1]; human, 20 min, 100 μM): 353.211
- Dose-dependent mean difference of APDtri ([1]; human, 20 min, 100 μM): 244.733
- Dose-dependent mean difference of Rise Time ([1]; human, 20 min, 100 μM): 12.5916
- Cmax ([10]; read-out: 95% of Cmax values): 0.98 to 14.2 µM
- Cmax ([10]; read-out: mean steady-state Cmax): 6 µM
SMILES: COc1ccccc1OCC(O)CN1CCN(CC(=O)Nc2c(C)cccc2C)CC1 (stereo not shown) [Ranolazine, ranolazine]
- mean steady-state Cmax [5]: 2569 ng/mL
- IC50 [6]: 91 µM
- IC50 [7]: 5.9 µM
- IC50 [8]: 50 µM
- IC50 [9]: 296 µM
